pIC50: −log10 of the molar value. Active and inactive are the calls of the source. No cut-off for these calls is given here.
Key:
HeLa [1] = assay: Growth inhibition of human HeLa cells by MTT assay; format: functional, cell-based
[2] = Inhibition of HIF-1 transcriptional activity in human HeLa cells transfected with hypoxia response element-dependent luciferase reporter gene under hypoxic conditions; format: cell-based
HeLa [3] = assay: Inhibition of HIF-1 transcriptional signaling in human HeLa cells assessed as reduction in CA9 protein expression at 100 uM under hypoxia conditions by Western blot analysis; format: cell-based
HeLa [4] = assay: Inhibition of HIF-1-alpha protein expression in human HeLa cells at 100 uM by Western blot analysis; format: functional, cell-based
HeLa [5] = assay: Inhibition of HIF-1-alpha mRNA expression in human HeLa cells under hypoxia conditions at 100 uM by qPCR analysis; format: functional, cell-based

SMILES	pIC50 (HeLa [1]; Homo sapiens, HeLa)	pIC50 ([2]; Homo sapiens, HeLa)	pIC50 (HeLa [1]; hela)	pIC50 ([2]; hela)	inhibition (HeLa [3])	inhibition (HeLa [4])	inhibition (HeLa [5])
CC(C)CC(=O)O[C@@H]1CC[C@@]2(OC(=O)Cc3ccccc3)CC1[C@@H](NCc1ccccc1)[C@@H]1O[C@@H]12	4.40	4.51					
CC(C)CC(=O)O[C@]12CC[C@@H](OC(=O)Cc3ccccc3)C(C1)[C@@H](NCc1ccccc1)[C@@H]1O[C@@H]12 (mixture of isomers)	5.46	4.76					
O=C(Cc1ccccc1)O[C@@H]1CC[C@@]2(OC(=O)Cc3ccccc3)CC1[C@@H](NCc1ccccc1)[C@@H]1O[C@@H]12 (mixture of isomers)	4.85	4.71					
CC(C)CN[C@@H]1C2C[C@](OC(=O)Cc3ccccc3)(CC[C@H]2OC(=O)CC(C)C)[C@H]2O[C@@H]12 (stereo in doubt)			4.49	4.33			
CC(C)CN[C@@H]1C2C[C@](OC(=O)Cc3ccccc3)(CC[C@H]2OC(=O)CC(C)C)[C@H]2O[C@@H]12 (stereo in doubt; 16f) [listing 1 of 2 here]			4.12	4.72			
CC(C)CN[C@@H]1C2C[C@](OC(=O)Cc3ccccc3)(CC[C@H]2OC(=O)Cc2ccccc2)[C@H]2O[C@@H]12	< 4.00	4.50					
CC(C)CN[C@@H]1C2C[C@](OC(=O)CC(C)C)(CC[C@H]2OC(=O)Cc2ccccc2)[C@H]2O[C@@H]12	4.05	4.69			Active	Active	
CC(C)CC(=O)O[C@@H]1CC[C@@]2(OC(=O)CC(C)C)CC1[C@@H](NCc1ccccc1)[C@@H]1O[C@@H]12	5.03	4.61					
CC(C)CN[C@@H]1C2C[C@](OC(=O)CC(C)C)(CC[C@H]2OC(=O)CC(C)C)[C@H]2O[C@@H]12	4.10	4.66			Active	Active	
CC(C)CN[C@@H]1C2C[C@](OC(=O)Cc3ccccc3)(CC[C@H]2OC(=O)CC(C)C)[C@H]2O[C@@H]12 (stereo in doubt; 16f) [listing 2 of 2 here]					Active	Active	Active
